What is called EC50 is the concentration at which the effect is half-maximal.

The record followed here is patent US10064873B2, “Compounds and compositions for treating HIV with derivatives of Betulin” (GlaxoSmithKline LLC, priority 2011, dated 2018).

SMILES strings stand for the structures. Where two headings read alike, the source gives them in different places.

In the assay the test system is HIV NL4-3 wt. The assay can be described thus: MT4 antiviral assay, NL4-3 strain wild type. It is filed as cell-based, HIV-1.
[1] abbreviates: Human immunodeficiency virus 1, NL43, MT4 cells, read-out: EC50 NL4-3 wt.
Where [2] appears, read: Human immunodeficiency virus 1, NL43, MT4, read-out: EC50 NL4-3 wt (nM).

As for `CC(C)C1=C2[C@H]3CC[C@@H]4[C@@]5(C)CC[C@H](OC(=O)CC(C)(C)C(=O)O)C(C)(C)[C@@H]5CC[C@@]4(C)[C@]3(C)CC[C@@]2([C@@H](O)CN(CCN(C)C)Cc2cccc(Cl)c2)CC1=O` [Example 45, 4-(((3aR,5aR,5bR,7aR,9S,11aR,11bR,13aS)-3a-((R)-2-((3-Chlorobenzyl)(2-(dimethylamino)ethyl)amino)-1-hydroxyethyl)-1-isopropyl-5a,5b,8,8,11a-pentamethyl-2-oxo-3,3a,4,5,5a,5b,6,7,7a,8,9,10,11,11a,11b,12,13,13a-octadecahydro-2H-cyclopenta[a]chrysen-9-yl)oxy)-2,2-dimethyl-4-oxobutanoic acid], the EC50 under setting [1] was 1.9 nM.

Take `CC(C)C1=C2[C@H]3CC[C@@H]4[C@@]5(C)CC[C@H](OC(=O)CC(C)(C)CC(=O)O)C(C)(C)[C@@H]5CC[C@@]4(C)[C@]3(C)CC[C@@]2([C@@H](O)CNCc2ccc(Cl)cc2)CC1=O` [Example 72, 5-(((3aR,5aR,5bR,7aR,9S,11aR,11bR,13aS)-3a-((R)-2-((4-chlorobenzyl)amino)-1-hydroxyethyl)-1-isopropyl-5a,5b,8,8,11a-pentamethyl-2-oxo-3,3a,4,5,5a,5b,6,7,7a,8,9,10,11,11a,11b,12,13,13a-octadecahydro-2H-cyclopenta[a]chrysen-9-yl)oxy)-3,3-dimethyl-5-oxopentanoic acid]: the EC50 under setting [1] is 5.1 nM. In the case of `CC(C)C1=C2[C@H]3CC[C@@H]4[C@@]5(C)CC[C@H](OC(=O)CC(C)(C)C(=O)O)C(C)(C)[C@@H]5CC[C@@]4(C)[C@]3(C)CC[C@@]2([C@H](O)CN2CCc3ccccc3C2)CC1=O` [Example 64, 4-(((3aR,5aR,5bR,7aR,9S,11aR,11bR,13aS)-3a-((S)-2-(3,4-dihydroisoquinolin-2(1H)-yl)-1-hydroxyethyl)-1-isopropyl-5a,5b,8,8,11a-pentamethyl-2-oxo-3,3a,4,5,5a,5b,6,7,7a,8,9,10,11,11a,11b,12,13,13a-octadecahydro-2H-cyclopenta[a]chrysen-9-yl)oxy)-2,2-dimethyl-4-oxobutanoic acid], the EC50 under setting [1] was determined as 7.2 nM. On to `CC(C)C1=C2[C@H]3CC[C@@H]4[C@@]5(C)CC[C@H](OC(=O)CC(C)(C)C(=O)O)C(C)(C)[C@@H]5CC[C@@]4(C)[C@]3(C)CC[C@@]2([C@H](O)CNCc2ccc(F)cc2)CC1=O` [Example 79, 4-(((3aR,5aR,5bR,7aR,9S,11aR,11bR,13aS)-3a-((S)-2-((4-fluorobenzyl)amino)-1-hydroxyethyl)-1-isopropyl-5a,5b,8,8,11a-pentamethyl-2-oxo-3,3a,4,5,5a,5b,6,7,7a,8,9,10,11,11a,11b,12,13,13a-octadecahydro-2H-cyclopenta[a]chrysen-9-yl)oxy)-2,2-dimethyl-4-oxobutanoic acid], for which the concentration for a half-maximal effect (EC50) under setting [1] was determined as 14.7 nM. Consider `CC(=O)N(Cc1cccc(Cl)c1)C[C@@H](O)[C@@]12CC[C@]3(C)[C@H](CC[C@@H]4[C@@]5(C)CC[C@H](OC(=O)CC(C)(C)C(=O)O)C(C)(C)[C@@H]5CC[C@]43C)C1=C(C(C)C)C(=O)C2` [Example 47, 4-(((3aR,5aR,5bR,7aR,9S,11aR,11bR,13aS)-3a-((S)-2-(N-(3-chlorobenzyl)acetamido)-1-hydroxyethyl)-1-isopropyl-5a,5b,8,8,11a-pentamethyl-2-oxo-3,3a,4,5,5a,5b,6,7,7a,8,9,10,11,11a,11b,12,13,13a-octadecahydro-2H-cyclopenta[a]chrysen-9-yl)oxy)-2,2-dimethyl-4-oxobutanoic acid], for which the EC50 under setting [1] worked out at 7.7 nM. As for `CC(C)C1=C2[C@H]3CC[C@@H]4[C@@]5(C)CC[C@H](OC(=O)CC(C)(C)C(=O)O)C(C)(C)[C@@H]5CC[C@@]4(C)[C@]3(C)CC[C@@]2([C@@H](CNCc2ccc(Cl)cc2)OC(=O)CC(C)(C)C(=O)O)CC1=O` [Example 3, 4-[(1S)-1-[(1R,2R,5R,10S,13R,14R, 17S,19R)-17-[(3-carboxy-3,3-dimethylpropanoyl)oxy]-1,2,14,18,18-pentamethyl-7-oxo-8-(propan-2-yl)pentacyclo[11.8.0.0^ {2,10}.0^{5,9}.0^{14,19}]henicos-8-en-5-yl]-2-{[(4-chlorophenyl)methyl]amino}ethoxy]-2,2-dimethyl-4-oxobutanoic acid], the EC50 under setting [1] stood at 61.7 nM.

As to `CC(C)C1=C2[C@H]3CC[C@@H]4[C@@]5(C)CC[C@H](OC(=O)CC(C)(C)C(=O)O)C(C)(C)[C@@H]5CC[C@@]4(C)[C@]3(C)CC[C@@]2([C@H](O)CN(C)Cc2ccc(Cl)cc2)CC1=O` [Example 29, 4-(((3aR,5aR,5bR,7aR,9S,11aR,11bR,13aS)-3a-((S)-2-((4-Chlorobenzyl)(methyl)amino)-1-hydroxyethyl)-1-isopropyl-5a,5b,8,8,11a-pentamethyl-2-oxo-3,3a,4,5,5a,5b,6,7,7a,8,9,10,11,11a,11b,12,13,13a-octadecahydro-2H-cyclopenta[a]chrysen-9-yl)oxy)-2,2-dimethyl-4-oxobutanoic acid], the EC50 under setting [1] was found to be 17.5 nM. For the compound `CC(=O)N(Cc1ccccc1Cl)C[C@@H](O)[C@@]12CC[C@]3(C)[C@H](CC[C@@H]4[C@@]5(C)CC[C@H](OC(=O)CC(C)(C)C(=O)O)C(C)(C)[C@@H]5CC[C@]43C)C1=C(C(C)C)C(=O)C2` [Example 35, 4-(((3aR,5aR,5bR,7aR,9S,11aR,11bR,13aS)-3a-((S)-2-(N-(2-Chlorobenzyl)acetamido)-1-hydroxyethyl)-1-isopropyl-5a,5b,8,8,11a-pentamethyl-2-oxo-3,3a,4,5,5a,5b,6,7,7a,8,9,10,11,11a,11b,12,13,13a-octadecahydro-2H-cyclopenta[a]chrysen-9-yl)oxy)-2,2-dimethyl-4-oxobutanoic acid], the EC50 under setting [1] came out at 4.2 nM. Take `CC(=O)O[C@H](CNCc1cccc(Cl)c1)[C@@]12CC[C@]3(C)[C@H](CC[C@@H]4[C@@]5(C)CC[C@H](OC(=O)CC(C)(C)C(=O)O)C(C)(C)[C@@H]5CC[C@]43C)C1=C(C(C)C)C(=O)C2` [Example 39, 4-(((3aR,5aR,5bR,7aR,9S,11aR,11bR,13aS)-3a-((S)-1-Acetoxy-2-((3-chlorobenzyl)amino)ethyl)-1-isopropyl-5a,5b,8,8,11a-pentamethyl-2-oxo-3,3a,4,5,5a,5b,6,7,7a,8,9,10,11,11a,11b,12,13,13a-octadecahydro-2H-cyclopenta[a]chrysen-9-yl)oxy)-2,2-dimethyl-4-oxobutanoic acid]: the EC50 under setting [2] amounted to 6.6 nM.

With `CC(C)C1=C2[C@H]3CC[C@@H]4[C@@]5(C)CC[C@H](OC(=O)CC(C)(C)C(=O)O)C(C)(C)[C@@H]5CC[C@@]4(C)[C@]3(C)CC[C@@]2(CCNCc2ccccc2Cl)CC1=O` [Example 82, 4-{[(1R,2R,5R,10S,13R,14R, 17S,19R)-5-(2-{[(2-chlorophenyl)methyl]amino}ethyl)-1,2,14,18,18-pentamethyl-7-oxo-8-(propan-2-yl)pentacyclo[11.8.0.0^ {2,10}.0^{5,9}.0^{14,19}]henicos-8-en-17-yl]oxy}-2,2-dimethyl-4-oxobutanoic acid], under setting [2], the concentration for a half-maximal effect (EC50) was 8.9 nM. On to `CC(C)C1=C2[C@H]3CC[C@@H]4[C@@]5(C)CC[C@H](OC(=O)CC(C)(C)C(=O)O)C(C)(C)[C@@H]5CC[C@@]4(C)[C@]3(C)CC[C@@]2([C@H](O)CNC2CCCCC2)CC1=O` [Example 68, 4-(((3aR,5aR,5bR,7aR,9S,11aR,11bR,13aS)-3a-((S)-2-(cyclohexylamino)-1-hydroxyethyl)-1-isopropyl-5a,5b,8,8,11a-pentamethyl-2-oxo-3,3a,4,5,5a,5b,6,7,7a,8,9,10,11,11a,11b,12,13,13a-octadecahydro-2H-cyclopenta[a]chrysen-9-yl)oxy)-2,2-dimethyl-4-oxobutanoic acid], for which the EC50 under setting [1] is 10.5 nM.
